The source made the active and inactive calls.
Columns and labels:
[1] = A cytotoxicity screen of small molecule inhibitors of the PhoP region in Salmonella typhi identified in the primary screen. [Related pubchem assays: 1850, 1864, 1985 ]; format: functional
[2] = Luminescence Cell-Based Dose Response to Identify Activators of 5'UTR Stem-Loop Driven Prion Protein mRNA Translation in H4-C Neuroglioblastoma Cells. [Related pubchem assays: 1829 (Project Summary), 1814 (Primary HTS)]; format: functional
[3] = Luminescence Cell-Based Dose Response to Identify Activators of Luciferase Translation or Activity in H4-C Neuroglioblastoma Cells. [Related pubchem assays: 1829 (Project Summary), 1814 (Primary HTS)]; format: functional
H4 = assay: Luminescence Cell-Based Dose Response HTS to Identify Activators of 5'UTR Stem-Loop Driven Prion Protein mRNA Translation in H4 Neuroglioblastoma Cells. [Related pubchem assays: 1829 (Project Summary), 1814 (Primary HTS)]; format: functional; details: Homo sapiens
[4] = Luminescence Cell-Based Dose Confirmation HTS to Identify Activators of 5'UTR Stem-Loop Driven Alpha-Synuclein mRNA Translation in H4 Neuroglioblastoma Cells. [Related pubchem assays: 1829 (Project Summary), 1814 (Primary HTS)]; format: functional
[5] = Luminescence Cell-Based Dose Confirmation to Identify Activators of 5'UTR Stem-Loop Driven Alpha-Synuclein mRNA Translation in H4 Neuroglioblastoma Cells. [Related pubchem assays: 1829 (Project Summary), 1814 (Primary HTS)]; format: functional
[6] = Luminescence Cell-Based Dose Response HTS to Identify Activators of Luciferase Translation or Activity in H4 […] Cells. [Related pubchem assays: 1829 (Project Summary), 1814 (Primary HTS)]; format: functional
Estrogen receptor = biological target: T1, Estrogen receptor (Homo sapiens, UniProt P03372);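 further: potency for inhibiting coactivator peptide recruitment to the receptor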
T1 sequence (P03372 whole entry): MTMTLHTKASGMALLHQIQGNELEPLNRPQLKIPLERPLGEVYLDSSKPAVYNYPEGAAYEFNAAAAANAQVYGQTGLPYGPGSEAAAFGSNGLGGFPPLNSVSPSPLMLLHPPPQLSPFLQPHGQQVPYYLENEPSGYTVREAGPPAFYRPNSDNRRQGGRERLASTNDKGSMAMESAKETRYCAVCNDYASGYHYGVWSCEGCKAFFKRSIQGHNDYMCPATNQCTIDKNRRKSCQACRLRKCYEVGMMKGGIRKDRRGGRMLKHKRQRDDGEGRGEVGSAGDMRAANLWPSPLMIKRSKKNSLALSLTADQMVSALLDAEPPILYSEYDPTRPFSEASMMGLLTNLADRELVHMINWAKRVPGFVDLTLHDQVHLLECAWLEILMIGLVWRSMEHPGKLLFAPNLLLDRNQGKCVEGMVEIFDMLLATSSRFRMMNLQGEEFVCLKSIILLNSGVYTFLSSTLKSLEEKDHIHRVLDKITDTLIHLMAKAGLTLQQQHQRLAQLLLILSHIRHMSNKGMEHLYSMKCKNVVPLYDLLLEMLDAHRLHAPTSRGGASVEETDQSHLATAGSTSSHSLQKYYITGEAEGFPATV

[7] = Luminescence-based dose response cell-based high throughput screening assay for cytotoxic compounds using the IEC-6 intestinal epithelial cell line. [Related pubchem assays: 1858 (Summary AID.), 1825 (Counterscreen.), 1907 (Confirmation screen.)]; format: functional
[8] = viability of uninfected HEp-2 cells – cell-based, HTS, cytotoxicity control for RSV inhibitor project, dose response (AID 2410); format: functional; details: human respiratory syncytial virus
[9] = biological target: T2, Carboxy-terminal domain RNA polymerase II polypeptide A small phosphatase 1 (Homo sapiens, UniProt Q9GZU7); assay: CTDSP1 inhibitors, concentration-response, biochemical, absorbance readout, ultra-high-throughput screen actives (AID 540297); format: functional
T2 sequence (Q9GZU7 whole entry): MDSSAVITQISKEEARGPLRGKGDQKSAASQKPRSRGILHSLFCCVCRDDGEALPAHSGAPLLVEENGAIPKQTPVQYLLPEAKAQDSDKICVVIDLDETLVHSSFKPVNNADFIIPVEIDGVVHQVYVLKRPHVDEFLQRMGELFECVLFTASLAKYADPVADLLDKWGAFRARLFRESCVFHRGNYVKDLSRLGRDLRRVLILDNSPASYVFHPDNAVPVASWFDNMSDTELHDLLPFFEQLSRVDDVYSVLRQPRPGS

[10] = CCR5-tropic HIV-1 fusion blockers – cell-based, CCR5-tropic Env, dose response (AID 2279); format: functional
[11] = biological target: T3, Heat shock factor protein 1 (Mus musculus, UniProt P38532); assay: decrease of HSF1-responsive luciferase luminescence – cell-based, NIH3T3, dose retest, confirmation (AID 2382); format: functional;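 further: NIH3T3 fibroblasts with HSF1-driven luciferase reporter stressed by proteasome inhibitor MG132; luminescence from HSF1-driven luciferase expression after 8 hours of MG132 stress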
T3 sequence (P38532 whole entry): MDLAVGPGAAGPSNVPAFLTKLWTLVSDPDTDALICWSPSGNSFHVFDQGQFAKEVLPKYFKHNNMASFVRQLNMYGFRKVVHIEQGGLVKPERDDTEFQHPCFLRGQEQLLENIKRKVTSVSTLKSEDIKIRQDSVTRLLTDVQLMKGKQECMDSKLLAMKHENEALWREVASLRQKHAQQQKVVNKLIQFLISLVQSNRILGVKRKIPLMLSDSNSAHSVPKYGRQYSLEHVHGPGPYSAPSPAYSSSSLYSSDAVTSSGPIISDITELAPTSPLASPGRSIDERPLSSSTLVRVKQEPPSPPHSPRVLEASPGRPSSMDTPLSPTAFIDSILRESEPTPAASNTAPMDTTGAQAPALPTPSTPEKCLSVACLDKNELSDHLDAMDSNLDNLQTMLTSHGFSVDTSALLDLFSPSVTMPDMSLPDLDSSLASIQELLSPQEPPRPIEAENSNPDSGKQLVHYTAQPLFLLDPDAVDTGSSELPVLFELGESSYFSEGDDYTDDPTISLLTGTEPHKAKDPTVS

[12] = biological target: FAD-linked sulfhydryl oxidase ALR (Homo sapiens, UniProt P55789); assay: ALR-catalysed DTT oxidation blockers – biochemical, H2O2 detection, luminescence, cherry-pick, dose response (AID 493248)
Sequence of FAD-linked sulfhydryl oxidase ALR (P55789 whole entry): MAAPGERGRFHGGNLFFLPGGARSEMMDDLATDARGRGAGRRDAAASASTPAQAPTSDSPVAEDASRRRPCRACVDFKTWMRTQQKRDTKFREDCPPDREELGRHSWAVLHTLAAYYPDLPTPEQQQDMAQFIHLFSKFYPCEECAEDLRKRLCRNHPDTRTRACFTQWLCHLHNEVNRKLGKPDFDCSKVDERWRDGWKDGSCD

[13] = biological target: T4, Calpain-2 catalytic subunit (Sus scrofa, UniProt P43367); assay: m-calpain protease blockers, concentration series – biochemical, fluorogenic peptide substrate, dose response (AID 1420); format: functional
T4 sequence (P43367 whole entry): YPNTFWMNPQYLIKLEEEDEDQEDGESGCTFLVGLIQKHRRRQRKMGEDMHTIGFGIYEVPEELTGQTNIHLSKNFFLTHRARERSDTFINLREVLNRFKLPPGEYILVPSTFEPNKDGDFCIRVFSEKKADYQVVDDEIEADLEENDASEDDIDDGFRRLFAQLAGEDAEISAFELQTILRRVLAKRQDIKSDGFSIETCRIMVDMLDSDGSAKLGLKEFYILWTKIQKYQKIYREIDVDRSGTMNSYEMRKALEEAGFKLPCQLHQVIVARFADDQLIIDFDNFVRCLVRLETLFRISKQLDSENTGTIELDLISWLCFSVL

[14] = A Cell Based Secondary Assay To Explore Cytotoxicity of Compounds that Sensitize Mycobacterium Tuberculosis to Beta-Lactam Antibiotics.; format: functional
[15] = biological target: T5, Mannose-6-phosphate isomerase (Homo sapiens, UniProt P34949); assay: MPI inhibition at elevated mannose 6-phosphate – biochemical, fluorescence intensity, high mannose 6-phosphate, primary screen (AID 1220)
T5 sequence (P34949 whole entry): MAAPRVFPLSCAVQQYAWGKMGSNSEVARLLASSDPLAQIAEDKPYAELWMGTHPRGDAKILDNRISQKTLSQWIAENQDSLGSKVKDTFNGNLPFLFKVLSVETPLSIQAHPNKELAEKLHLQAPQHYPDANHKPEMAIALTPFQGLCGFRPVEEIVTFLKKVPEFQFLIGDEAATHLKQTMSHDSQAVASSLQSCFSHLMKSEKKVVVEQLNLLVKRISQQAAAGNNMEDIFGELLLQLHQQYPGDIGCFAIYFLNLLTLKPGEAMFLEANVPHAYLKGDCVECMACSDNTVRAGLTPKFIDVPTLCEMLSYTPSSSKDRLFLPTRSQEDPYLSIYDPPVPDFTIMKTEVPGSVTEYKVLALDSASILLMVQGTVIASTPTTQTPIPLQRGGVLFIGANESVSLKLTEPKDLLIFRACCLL

[16] = test system: Streptococcus sp. 'group A'; assay: Streptococcus pyogenes SK(-)GAS viability under kanamycin – luminescence, BacTiterGlo, confirmation, counter-screen for streptokinase expression inhibitor project, dose response (AID 1900); format: functional, organism-based
INS1 = assay: INS-1E survival protection against cytokine death – cell-based, luminescence, retest, dose response (AID 449756); format: functional; details: Rattus norvegicus;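 further: cell death triggered by IL-1 beta plus TNF-alpha plus IFN-gamma mixture; protective hits raise ATP signal compared with cytokine alone wells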
Streptococcus = assay: GAS UMAA2166 growth inhibition – luminescence, BacTiterGlo, counter-screen for streptokinase expression inhibitor project, dose response (AID 1915); format: functional, organism-based;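 further: potency for reduction of bacterial viability or growth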
[17] = viability of HCT116 lacking mutant beta-catenin – cell-based, human colon tumor, dose response (AID 1045); format: functional;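 further: HCT116 colon tumor cells with beta catenin knocked out; cells exposed to compound for 60 hours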
[18] = viability of PTEN-deleted HCT116 cells – cell-based, HCT116 PTEN knockout, dose response (AID 1047); format: functional;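 further: HCT116 colon tumor cells with PTEN knocked out; cells exposed to compound for 60 hours before readout; potency for loss of cell viability measured by luminescence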
Vero = assay: viability of Vero cells under compound – cytotoxicity control for flavivirus capping enzyme inhibitors (AID 588742); format: functional; details: Chlorocebus sabaeus
Aminopeptidase N = biological target: T6, Aminopeptidase N (Plasmodium falciparum FcB1/Columbia, UniProt O96935); assay: malaria alanyl aminopeptidase activity blockers – biochemical, fluorogenic H-Leu-NHMec substrate, 1536-well (AID 1445); set-up: species or system Plasmodium falciparum 3D7, 3D7
T6 sequence (O96935 whole entry): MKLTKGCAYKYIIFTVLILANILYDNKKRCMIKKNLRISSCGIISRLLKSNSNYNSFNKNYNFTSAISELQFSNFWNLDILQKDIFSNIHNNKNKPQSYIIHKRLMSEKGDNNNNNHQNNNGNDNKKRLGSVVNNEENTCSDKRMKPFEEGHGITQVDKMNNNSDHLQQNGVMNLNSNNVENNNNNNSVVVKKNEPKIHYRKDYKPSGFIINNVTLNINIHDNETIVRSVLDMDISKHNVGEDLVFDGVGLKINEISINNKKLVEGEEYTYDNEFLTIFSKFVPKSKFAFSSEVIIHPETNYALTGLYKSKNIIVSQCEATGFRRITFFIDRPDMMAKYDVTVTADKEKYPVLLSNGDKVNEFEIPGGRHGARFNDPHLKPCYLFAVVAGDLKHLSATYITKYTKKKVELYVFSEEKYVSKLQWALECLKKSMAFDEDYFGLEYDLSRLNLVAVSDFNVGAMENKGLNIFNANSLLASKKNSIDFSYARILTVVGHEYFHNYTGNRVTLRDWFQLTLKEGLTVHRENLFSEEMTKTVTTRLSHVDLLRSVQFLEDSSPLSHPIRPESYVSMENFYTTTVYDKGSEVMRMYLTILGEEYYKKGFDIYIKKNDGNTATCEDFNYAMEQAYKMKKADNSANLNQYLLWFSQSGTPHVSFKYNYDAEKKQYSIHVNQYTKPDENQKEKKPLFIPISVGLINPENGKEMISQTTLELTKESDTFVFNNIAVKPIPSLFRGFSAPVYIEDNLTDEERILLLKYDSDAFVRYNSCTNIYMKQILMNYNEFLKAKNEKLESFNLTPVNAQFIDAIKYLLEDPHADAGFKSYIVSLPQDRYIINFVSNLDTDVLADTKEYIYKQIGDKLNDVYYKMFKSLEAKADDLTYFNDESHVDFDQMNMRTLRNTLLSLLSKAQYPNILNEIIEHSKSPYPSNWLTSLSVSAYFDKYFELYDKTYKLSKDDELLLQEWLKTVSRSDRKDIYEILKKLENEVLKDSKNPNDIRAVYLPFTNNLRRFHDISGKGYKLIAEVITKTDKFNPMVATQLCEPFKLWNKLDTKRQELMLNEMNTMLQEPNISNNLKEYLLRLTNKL

Genome polyprotein = Genome polyprotein (dengue virus type 2, UniProt P29990); assay: flavivirus cap methylation enzyme inhibition – biochemical, confirmation dose response, primary screen (AID 588689); format: functional
Sequence of Genome polyprotein (P29990 2492-3391 limits assumed): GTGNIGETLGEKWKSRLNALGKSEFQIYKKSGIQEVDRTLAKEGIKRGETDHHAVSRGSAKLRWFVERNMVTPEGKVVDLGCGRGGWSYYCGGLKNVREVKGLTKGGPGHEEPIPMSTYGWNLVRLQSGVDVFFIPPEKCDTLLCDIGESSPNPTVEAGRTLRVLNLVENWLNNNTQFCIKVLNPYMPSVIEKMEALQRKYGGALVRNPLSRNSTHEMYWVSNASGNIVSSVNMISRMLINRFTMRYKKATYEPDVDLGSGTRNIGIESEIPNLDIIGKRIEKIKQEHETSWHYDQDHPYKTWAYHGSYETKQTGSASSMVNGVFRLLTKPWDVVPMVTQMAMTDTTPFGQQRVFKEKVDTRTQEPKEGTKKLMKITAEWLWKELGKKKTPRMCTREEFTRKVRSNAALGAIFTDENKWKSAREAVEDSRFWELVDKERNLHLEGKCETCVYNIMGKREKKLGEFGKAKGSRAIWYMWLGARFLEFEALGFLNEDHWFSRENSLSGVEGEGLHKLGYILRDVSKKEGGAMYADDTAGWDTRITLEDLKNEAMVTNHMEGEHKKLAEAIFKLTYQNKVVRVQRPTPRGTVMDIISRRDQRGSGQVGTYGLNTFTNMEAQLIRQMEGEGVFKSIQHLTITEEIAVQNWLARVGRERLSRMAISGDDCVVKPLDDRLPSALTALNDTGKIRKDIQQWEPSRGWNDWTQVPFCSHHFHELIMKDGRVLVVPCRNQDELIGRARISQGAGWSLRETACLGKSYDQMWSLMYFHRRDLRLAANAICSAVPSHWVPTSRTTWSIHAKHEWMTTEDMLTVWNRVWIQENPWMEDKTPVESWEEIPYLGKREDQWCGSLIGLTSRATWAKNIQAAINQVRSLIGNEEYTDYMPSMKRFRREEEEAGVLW

Structure (SMILES): CCN=C(S)Nc1cccc(S(=O)(=O)Nc2ccccc2OC)c1
- EC50 [1]: > 50 µM (active)

Structure (SMILES): Cc1cc2nc(SCCN3CCOCC3)[nH]c2cc1C
- EC50 [2]: 0.61 µM (active)
- EC50 [3]: 0.338 µM (active)
- EC50 (H4): 0.22 µM (active)
- EC50 [4]: < 0.1 µM (active)
- EC50 [5]: 0.345 µM (active)
- EC50 [6]: 1.88 µM (active)

Structure (SMILES): COc1cccc(-c2nnc(NC(=O)Cc3cccs3)s2)c1
- IC50 (Estrogen receptor): 19.1 µM (active)

Structure (SMILES): CC(=O)c1c(N2CCN(c3cccc(Cl)c3)CC2)nc(=S)n(-c2ccccc2)c1C
- EC50 [1]: > 50 µM (active)

Structure (SMILES): OC1=C2C(=Nc3cc4c(cc3C2c2ccc(F)cc2)OCCO4)CO1 (configuration not stated)
- IC50 [7]: 0.0539 µM (active)

Structure (SMILES): COc1ccc(N(C(=O)c2cccnc2)S(=O)(=O)c2cccc([N+](=O)[O-])c2)cc1
- EC50 [1]: > 50 µM (active)

Structure (SMILES): COc1cc(/C=C2\C(=N)N3N=C(S(C)(=O)=O)SC3=NC2=O)ccc1OCCOc1ccccc1C
- CC50 [8]: 26.3 µM (active)
- IC50 [9]: 3.51 µM (active)
- IC50 [10]: 28.5 µM (active)

Structure (SMILES): CCn1c(C)cc(/C=C2/NC(=O)N(c3ccccc3)C2=O)c1C
- EC50 [2]: 0.505 µM (active)
- EC50 [3]: 0.236 µM (active)
- EC50 [11]: > 195 µM (not active)
- EC50 (H4): > 120 µM (not active)
- EC50 [5]: 0.307 µM (active)
- EC50 [6]: < 0.1 µM (active)

Structure (SMILES): O=C(CCNc1ccccc1)c1cccc([N+](=O)[O-])c1
- AC50 [12]: 5.58 µM (active)
- IC50 [13]: 14.1 µM (not active)
- CC50 [14]: 25.6 µM (active)
- IC50 [15]: 39.5 µM (active)

Structure (SMILES): C/C(=N/NC(=O)c1cccs1)c1c(C)[nH]n(-c2nc3ccccc3s2)c1=O
- EC50 [16]: 5.77 µM (active)
- AC50 (INS1): 7.34 µM (active)
- EC50 (Streptococcus): 9.42 µM (active)
- EC50 [17]: 10.9 µM (active)
- EC50 [18]: 11.2 µM (active)
- CC50 [14]: 25.8 µM (active)

Structure (SMILES): CSc1nnc(-c2ccccc2/N=C/c2c(C)nn(-c3ccc4ccccc4c3)c2O)c(O)n1
- CC50 (Vero): > 40 µM (active)
- EC50 (H4): 46.3 µM (active)
- IC50 (Aminopeptidase N): 31.9 µM (active)
- EC50 [4]: 9.56 µM (active)
- IC50 [10]: 3.61 µM (active)
- EC50 [6]: 8.3 µM (active)
- IC50 (Genome polyprotein): 37.5 µM (active)
